Laboratory results taken from US20100298234A1, “Cancer therapeutic agents comprising a ligand for the neuromedin u receptor 2 (fm4) molecule as an active ingredient” (priority 2006, published 2010).

Legend:
[1] = molecular target: T1, FM4 (Homo sapiens, UniProt Q9GZQ4, A395T/C204F); test: Intracellular Ca2+ concentration measurement (Fluo 4 AM) in FM4-expressing CHO cells; assay type: cell-based; details: FM4-CHO cell line, 2.5 μM NmU, FIG. 3
T1 construct: using Pyrobest Taq polymerase (Takara) to clone the full-length FM4 gene; expressed in transfected cells
T1 sequence (Q9GZQ4 whole entry C204F/A395T): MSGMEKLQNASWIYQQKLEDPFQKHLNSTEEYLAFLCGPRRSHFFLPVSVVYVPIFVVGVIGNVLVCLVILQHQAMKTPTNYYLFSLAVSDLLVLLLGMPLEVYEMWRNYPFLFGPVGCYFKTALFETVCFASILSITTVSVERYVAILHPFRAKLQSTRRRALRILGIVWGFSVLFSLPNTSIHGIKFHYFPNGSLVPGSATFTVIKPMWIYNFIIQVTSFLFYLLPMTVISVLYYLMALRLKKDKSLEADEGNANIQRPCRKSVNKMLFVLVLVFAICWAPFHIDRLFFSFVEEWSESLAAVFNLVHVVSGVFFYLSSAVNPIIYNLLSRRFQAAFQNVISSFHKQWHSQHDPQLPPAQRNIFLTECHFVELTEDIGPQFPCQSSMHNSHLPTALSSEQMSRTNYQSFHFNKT
Description: 15 μg of linearized FM4 expression vector (pMCN-FM4) obtained by digestion with PvuI was introduced into CHO cells by electroporation (Gene Pulser; BioRad) at 1.5 kV, 25 μFD. The cells were cultured in a medium containing 500 μg/mL of G418, and G418-resistant cells were picked. NmU was added to these cells, and cell lines that reacted to NmU were selected using the increase in intracellular Ca^2+ concentration as an index.
(§1) The cells were detached using trypsin, plated onto a 96-well plate (black plate for fluorescence measurement) at 2×10^4 cells/well, and after culturing overnight, they were used for intracellular calcium measurements. Measurement of the intracellular calcium concentration was performed as follows.
After removing the medium, an Fluo 4 AM solution [2% FCS, 3 μM Fluo 4 AM (Molecular PROBES) in assay buffer (2 mM HEPES, 1.5 mM probenecid in HBSS)] was added at 50 μL/well. After incubation in the dark at 37° C. for 30 minutes, the cells were washed three times in the assay buffer. Then, an assay buffer that contains 2.5 μM of NmU (Funakoshi) was added, and the intracellular Ca^2+-dependent fluorescence trace at 490-nm excitation was monitored on a plate reader for fluorimetric analysis (Fusion; Perkin Elmer).

[2] = molecular target: T1, FM4; test: Intracellular Ca2+ concentration in FM4-expressing PANC1 cells (FM4-PANC1); assay type: cell-based; details: FM4-PANC1, NmU 1 μM, FIG. 6
Description: as §1
After removing the medium, an Fluo 4 AM solution [2% FCS, 3 μM Fluo 4 AM (Molecular PROBES) in assay buffer (2 mM HEPES, 1.5 mM probenecid in HBSS)] was added at 50 μL/well. After incubation in the dark at 37° C. for 30 minutes, the cells were washed three times in the assay buffer. […]
In order to confirm that the NmU signaling is transmitted into the cell in the obtained FM4-expressing PANC1 cells (FM4-PANC1), whether the addition of NmU increased the intracellular Ca^2+ concentration was analyzed. […] This confirmed that in the established FM4-PANC1 cells, NmU stimulation causes the FM4-mediated signaling to be transmitted into the cell.

[3] = test system: FM4-CHO cells; test: Proliferation-suppressing effect, WST-8 assay, FM4-CHO; assay type: cell-based, Chinese hamster; details: NmU 0.096 μM to 60 μM, 48 hours, FIG. 4A
Description: FM4-CHO cells were plated onto a 96-well plate at 2×10^3 cells/well. On the following day, NmU was added to each well at various concentrations (0.096 μM to 60 μM) and the cells were cultured. 48 Hours later, the number of viable cells were analyzed by WST-8 assay (Cell counting kit-8, Dojindo Laboratories).

[4] = test system: PANC-1; test: Proliferation of pancreatic cancer cell line PANC-1; assay type: cell-based, human; details: PANC-1, NmU 0.096 μM to 60 μM, 72 hours, FIG. 4B
Description: (§2) On the following day, NmU was added to each well at 0.096 μM to 60 μM. Seventy-two hours later, the number of cells was determined.

[5] = test system: Capan-1; test: Proliferation of pancreatic cancer cell line Capan-1; assay type: cell-based, human; details: Capan-1 (high FM4 gene expression), NmU 0.096 μM to 60 μM, 72 hours, FIG. 4B
Description: as §2

[6] = test system: PANC1 cells; test: Soft agar colony formation assay, parent PANC1 cells; assay type: cell-based, human; details: parent cell line PANC1 that does not express FM4, NmU 1 μM, one month, FIG. 7
Description: (§3) To analyze the effect of NmU on the ability of this cell to form colonies, soft agar colony formation assay was performed. Soft agar colony formation assay was performed as follows.
(§4) Base agar (0.5% agar, 1×MEM, and 10% FCS) was added to each well of a 6-well plate at 1.5 mL/well, and then 1.5 mL/well (0.5×10^4 cells/well) of PANC1 cells or FM4-PANC1 cells in the presence or absence of NmU (1 μM) in top agar (0.35% agar, 1×MEM, and 10% FCS) was added at to each of the wells. After culturing for one month, the number of colony forming cells in the soft agar was counted under a microscope.

[7] = test system: FM4-PANC1 cells; test: Soft agar colony formation assay, FM4-PANC1 cells; assay type: cell-based, human; details: FM4-PANC1, NmU 1 μM, one month, FIG. 7
Description: as §3, §4

[8] = test system: FM4-CHO cells; test: Cell morphology of FM4-CHO cells under a microscope after NmU stimulation; assay type: cell-based, Chinese hamster; details: FM4-CHO stimulated with NmU, in approximately 12 hours, FIG. 8
Source text: The cell morphology of FM4-CHO cells which were forced to express FM4 was observed under a microscope.
This led to the speculation that NmU is involved in signal transduction that regulates cell adhesion and cell movement.

[9] = test system: CHO cells; test: Wound healing assay (cell movement), parent CHO cells; assay type: cell-based, Chinese hamster; details: NmU 5 μM, serum-free medium, 24 hours, FIG. 9
Description: (§5) Next, the effect of NmU on cell movement ability was analyzed by wound healing assay. Parent cell line CHO cells and FM4-CHO cells were grown to confluency in plates, and wounded with a pipette tip to make a fixed clearance between the cells. After washing the cells twice with PBS, the cells were cultured in a serum-free culture medium in the presence or absence of NmU (5 μM). Twenty-four hours later, cells that moved into the clearance between the cells were observed and photographed under a microscope.

[10] = test system: FM4-CHO cells; test: Wound healing assay (cell movement), FM4-CHO cells; assay type: cell-based, Chinese hamster; details: NmU 5 μM, serum-free medium, 24 hours, FIG. 9
Description: as §5

[11] = test system: FM3; details: CHO, HEK-293 and COS-7 cells forced to express FM3; cited from earlier work
[12] = molecular target: T2, FM4 (Homo sapiens, UniProt Q9GZQ4); details: CHO, HEK-293 and COS-7 cells forced to express FM4; cited from earlier work
T2 construct: host or cells: CHO, HEK-293 and COS-7 cells with forced expression
T2 sequence (Q9GZQ4 whole entry): as the sequence (Q9GZQ4 whole entry C204F/A395T) above, with F204C, T395A counted along it

[13] = administration into the cerebral ventricle; cited from earlier work

intracellular Ca2+ concentration [1]: quickly increased
Substance: NmU: biologically active peptide, endogenous ligand for FM3 and FM4; polypeptide of SEQ ID NO: 14; NmU (Funakoshi) used in the tests (FRVDEEFQSPFASQSRGYFLFRPRN; listed as Homo sapiens)
intracellular Ca2+ concentration [2]: increase of the intracellular Ca^2+ concentration
proliferation (number of viable cells, WST-8) [3]: suppressed proliferation of FM4-CHO at low concentration
proliferation (number of cells) [4]: did not act at all on the proliferation
proliferation (number of cells) [5]: proliferation-suppressing effect of NmU was observed
colony forming ability in soft agar [6]: did not have any effect
colony forming ability in soft agar [7]: colony formation-suppressing effect by NmU was confirmed
cell morphology [8]: significant morphological alterations of the cells such as disappearance of cell protrusions
cell movement [9]: did not have any effect
cell movement [10]: completely inhibited
intracellular calcium ion concentration [11]: induced increase of intracellular calcium ion concentration at the nanomolar level
intracellular calcium ion concentration [12]: induced increase of intracellular calcium ion concentration at the nanomolar level
food/feed intake [13]: significant reduction in overnight food intake and starvation-induced feeding
